According to US20130102680A1, “METHODS FOR SELECTIVE SILENCING OF SENSORY NEURONS” (CORNELL UNIVERSITY, priority 2011, published 2013):
Values belong to the compound of their own block, whether it stands above or below them.

Experiments:
[1] = target: T1, rat TRPV1 (Rattus norvegicus, UniProt O35433); experiment: Ca^2+ imaging (Fura-2) in HEK293 cells stably expressing rat TRPV1; format: cell-based; conditions: for intracellular Ca^2+ level on extracellular application: ratiometric fura-2 imaging
T1 construct: expressed in transfected cells

[2] = target: T1, rat TRPV1; experiment: YO-PRO-1 uptake (imaging / plate-reader) in TRPV1-expressing cells; format: cell-based; conditions: for fold decrease of t1/2 to maximal YO-PRO-1 fluorescence, pretreated vs not pretreated cells: 50 μM agonist pre-incubated two hours then removed, 5 μM YO-PRO-1, n=3; for agonist-induced YO-PRO-1 uptake: extracellular application
Procedure: Human embryonic kidney (HEK) 293 cells stably expressing rat TRPV1 were grown in DMEM/F12 with 10% newborn calf serum and antibiotics and cultured in a 5% CO2 aerated incubator at 37° C. Cells were trypsinized and plated on 96-well plates or matrix-coated coverslips for Ca^2+ imaging, YO-PRO-1 imaging, plate-reader assays, or electrophysiological recording. Calcium imaging, fluorescent dye uptake assays, and electrophysiological experiments were all performed 24-72 hours after plating.
Cells were plated in 96-well plates to near confluence. Images were acquired at a rate of 1 frame per 15 sec. The fields were illuminated for 2 sec for each frame. The fluorescent intensity was measured at the emission wavelength of 510/20 nm. 2× concentration of agonists and 10 μM YO-PRO-1 were mixed and added at equal volume to a bath solution with the same electrolyte composition except omitting CaCl2.
TRPV1 cell lines were passed into 96-well plate, grown to confluence, and assayed in a physiological Ringer solution. 50 μl of solution as used for YO-PRO-1 imaging with agonists of various concentrations was added to each well. Fluorescence intensity (485-nm excitation, 516-nm emission) was monitored by Multi-detection Microplate Reader (BioTek). For normalization, cells were fixed by 5% PFA at the end of experiments and counted total fluorescence from each well after adding digitonin solution (Assay Designs) with 5 μM YO-PRO-1.

[3] = target: T2, rTRPV1 Y511A (Rattus norvegicus, UniProt O35433, Y511A); experiment: YO-PRO-1 entry in HEK cells expressing rTRPV1 Y511A; format: cell-based
T2 construct: expressed in transfected cells; host or cells: HEK cells

[4] = target: T1, rat TRPV1; experiment: Electrophysiology of membrane patches from HEK cells expressing rat TRPV1; format: cell-based
[5] = tested on: voltage gated Na+ channels; experiment: Neuronal Na+ currents after cap-ET and/or QX-314 loading, whole-cell recording; conditions: PAO or cap-ET alone (10 μM), then 5 mM QX-314

T1 sequence (O35433 whole entry): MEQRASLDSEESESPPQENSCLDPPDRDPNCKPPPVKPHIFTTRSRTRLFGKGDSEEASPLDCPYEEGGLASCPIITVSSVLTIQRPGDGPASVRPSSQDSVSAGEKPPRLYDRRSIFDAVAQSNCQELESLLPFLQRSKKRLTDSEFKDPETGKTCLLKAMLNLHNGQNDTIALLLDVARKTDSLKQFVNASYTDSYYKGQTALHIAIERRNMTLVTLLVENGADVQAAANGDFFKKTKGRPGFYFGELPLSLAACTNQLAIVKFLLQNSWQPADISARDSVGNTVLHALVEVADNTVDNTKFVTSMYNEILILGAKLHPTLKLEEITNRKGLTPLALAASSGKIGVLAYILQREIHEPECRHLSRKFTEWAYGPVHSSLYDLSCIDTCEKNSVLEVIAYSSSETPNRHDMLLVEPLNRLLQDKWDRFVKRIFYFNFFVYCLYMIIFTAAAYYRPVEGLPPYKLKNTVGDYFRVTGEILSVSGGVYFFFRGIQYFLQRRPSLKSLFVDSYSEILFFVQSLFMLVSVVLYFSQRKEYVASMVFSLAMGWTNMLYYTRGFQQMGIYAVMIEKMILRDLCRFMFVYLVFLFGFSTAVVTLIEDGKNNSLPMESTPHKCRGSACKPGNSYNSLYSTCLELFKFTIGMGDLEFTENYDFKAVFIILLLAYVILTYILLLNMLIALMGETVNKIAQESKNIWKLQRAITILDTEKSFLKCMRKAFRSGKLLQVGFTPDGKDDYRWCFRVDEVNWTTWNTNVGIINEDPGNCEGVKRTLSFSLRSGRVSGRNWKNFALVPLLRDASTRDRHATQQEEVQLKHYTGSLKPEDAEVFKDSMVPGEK
T2 sequence (O35433 whole entry Y511A): as the sequence (O35433 whole entry) above, with Y511A counted along it

SMILES: CC[N+](CC)(CC)CCOc1ccc(CNC(=O)CCCC/C=C/C(C)C)cc1OC [cap-ETEA, capsaicin O-tetra-ethylammonium acetate]
intracellular Ca^2+ level on extracellular application [1]: effectively raised intracellular Ca^2+ levels

SMILES: N.N.N.N.N.N.N.N.N.N.N.N.N.N.[Cl-].[Cl-].[Cl-].[Cl-].[Cl-].[Cl-].[O-2].[O-2].[Ru+3].[Ru+3].[Ru+4] [RR, ruthenium red]
effect on capsaicin-mediated YO-PRO-1 entry ([2]; 10 μM): effectively suppressed YO-PRO-1 entry

SMILES: C[n+]1c(C=C2C=CN(CCC[N+](C)(C)C)c3ccccc32)oc2ccccc21 [YO-PRO-1, reference compound]
block of TRPV1 currents evoked by 10 μM capsaicin ([4]; 5 μM, inside-out patch): reversibly blocked

SMILES: CCCC(=O)O[C@@H]1[C@@H](C)[C@@]2(O)[C@@H](C=C(CO)C[C@]3(O)C(=O)C(C)=C[C@@H]23)[C@@H]2C(C)(C)[C@]12OC(=O)CCC [PDBu]
effect on potency of capsaicin or cap-ET for YO-PRO-1 uptake [2]: increased the potency

The next lines start with results.

intracellular Ca^2+ level on extracellular application [1]: large intracellular Ca^2+ rise | fold decrease of t1/2 to maximal YO-PRO-1 fluorescence, pretreated vs not pretreated cells [2]: 1.14±0.04 fold | agonist-induced YO-PRO-1 uptake [2]: induced YO-PRO-1 uptake | YO-PRO-1 transport via rTRPV1 Y511A mutant [3]: failed to elicit YO-PRO-1 transport
SMILES: COc1cc(CNC(=O)CCCC/C=C/C(C)C)ccc1O [capsaicin]

block of capsaicin-induced TRPV1 currents ([4]; 100 μM cap-ET co-applied with 30 μM capsaicin, from outside or inside): strong voltage-dependent block | electric current induced on cytoplasmic side of inside-out patch ([4]; 100 μM cap-ET, compared to 30 μM capsaicin): barely detectable electric current | fold decrease of t1/2 to maximal YO-PRO-1 fluorescence, pretreated vs not pretreated cells [2]: 5.37±0.99 fold | agonist-induced YO-PRO-1 uptake [2]: induced YO-PRO-1 uptake | hydrophilicity relative to capsaicin, based on water/octanol partitioning: over 300 fold
SMILES: COc1cc(CNC(=O)CCCC/C=C/C(C)C)ccc1OCC[N+](C)(C)C [cap-ET, capsaicin O-ethyl (trimethyl-ammonium) acetate]
rank of potency and efficacy in Ca^2+ signals among the three charged capsaicinoids [1]: most potent and efficacious among the three | intracellular Ca^2+ level on extracellular application [1]: effectively raised intracellular Ca^2+ levels | Icap-ET/Icap (ionic current relative to capsaicin), PAO-sensitized TRPV1 [4]: 3.0±0.9% | electric current induced, TRPV1 sensitized by 10 μM PAO ([4]; 100 μM cap-ET): recordable but small current | Na+ current density after QX-314, agent alone [5]: comparable to cells not exposed to QX-314
